Laboratory results from patent publication US20090036544A1, “METHODS AND COMPOSITIONS FOR INHIBITING THE PROLIFERATION OF PROSTATE CANCER CELLS” (priority 2001, published 2009).

Tests used:
[1] = test system: LNCaP cells; assay: Cell proliferation assay (MTS) in LNCaP cells; format: cell-based, human; conditions: five days
Protocol: (§1) A human prostate cancer cell line, LNCaP (American Type Culture Collection (ATCC), Manassas, Va.), was grown in RPMI 1640 medium (Mediatech, Herndon, Va.) supplemented with 5% fetal bovine serum (FBS) and 5% CO2 at 37° C. until reaching approximately 50-70% confluence. The media were changed to serum-free RPMI 1640 at 24 hrs prior to performing experiments to deplete undesired steroids. Cells were then treated with 5% charcoal-stripped FBS RPMI 1640 containing POH (all from Sigma (St. Louis, Mo.), dissolved in DMSO) at indicated concentrations with or without 1 nM of mibolerone (Mib) (from New England Nuclear (St. Louis, Mo.), dissolved in ethanol), a non-metabolizable synthetic androgen. Equivalent amounts of solvent were added to control cells.
(§2) LNCaP cells were seeded at 4×10^4/well in 24-well dishes and treated with POH at indicated concentrations in the presence of 1 nM Mib. Five days later, cell proliferation was measured using an MTS assay kit (Promega, Madison, Wis.), and PSA and hK2 levels in spent media were determined by the Tandem-E PSA kit (Hybritech Inc., San Diego, Calif.) or Mayo's hK2 assay (Zhang et al., 1999, Endocrin., 140:1665-71). Protein levels of PSA and hK2 were normalized to the MTS measurements.

[2] = test system: androgen receptor; assay: Transient transfection luciferase reporter assay, 3 copies of hK2 ARE, in LNCaP cells; format: cell-based, human; conditions: minimum SV40 promoter and 3 copies of hK2 ARE, 1 nM Mib, 24 hrs, FIG. 3B
From the text: (§3) The 6 Kb PSA promoter and the androgen receptor promoter constructs (pGL3 SV40, pGL3 SV40-3 ARE, pGL3 or PSA promoter/pGL3) were described previously (Id). To make an hk2 androgen responsive element (hk2 ARE) construct, a DNA fragment containing three copies of hk2 ARE (5′-[…]-3′ (SEQ ID NO:1)) was synthesized by the Mayo Molecular Core Facility. The synthesized fragment, including SacI and XhoI restriction enzyme sites at the 5′ and 3′-end, respectively, was digested with SacI and XhoI according to manufacturer's instructions and inserted into a pre-cut pGL3-Promoter vector (Promega). The fidelity of this construct was confirmed by DNA sequencing.
(§4) LNCaP cells in duplicate plates were co-transfected with a CMV-β galactosidase (β-gal) expression vector (0.3 μg/plate) and one of the following: a pGL3-Basic luciferase vector (Promega) containing the PSA promoter (nucleotides 1-5836 of GenBank Accession No. U37672), a pGL3-Promoter luciferase vector (Promega) containing three copies of hk2 ARE, a PGL3 vector or PSA promoter/PGL3 vector. Transfections were performed using a liposome method with dimethyldioctadecyl-ammonium bromide (Sigma) and L-lecithin (Sigma) (4:10). Cells were then treated with POH in the presence or absence of 1 nM Mib for 24 hrs. Cell extracts were prepared and used for luciferase and β-gal assays (Promega). […]

[3] = test system: hK2; assay: hK2 quantification in spent media of LNCaP cells (Mayo's hK2 assay); format: cell-based, human; conditions: 1 nM Mib, five days, normalized to MTS; FIG. 2B
Protocol: as §1, §2

[4] = test system: androgen receptor; assay: Transient transfection luciferase reporter assay, PSA promoter, in LNCaP cells; format: cell-based, human; conditions: 1 nM Mib, 24 hrs, FIG. 3A
From the text: as §3, §4

[5] = test system: c-jun; assay: Expression of c-jun protein after POH treatment; format: cell-based; conditions: normalized data, FIG. 6
Protocol: In order to ascertain how androgen receptor function was being inhibited by POH at levels below 1 μM, c-jun was examined. […] The graph depicts the normalized data. This experiment was repeated twice and representative data is shown.

[6] = test system: androgen receptor promoter; assay: Luciferase reporter assay with androgen receptor promoter in LNCaP cells; format: cell-based, human
From the text: as §3, §4

[7] = test system: androgen receptor; assay: Western blot analysis of androgen receptor protein in LNCaP cells; format: cell-based, human; conditions: POH until a concentration of 1 μM is reached, 1 nM Mib, 24 hrs
Protocol: LNCaP cells were treated with the indicated concentrations of POH in the presence of 1 nM Mib for 24 hrs. Cells were then harvested, and whole-cell lysates and nuclear extracts were prepared as described (Mitchell et al., 1999, Cancer Res., 59:5892-5). Western blot analysis was performed according to the protocol described (Id). A mouse antibody against the human androgen receptor (1:1000 or 1:2000 dilution) (Pharmingen, San Diego, Calif.) or human tubulin (1:10,000 dilution) (Santa Cruz, Santa Cruz, Calif.) was used as the primary antibody. Ponceau S staining was used for monitoring protein loading and transfer efficiency (Id).

[8] = test system: PSA; assay: PSA quantification in spent media of LNCaP cells (Tandem-E PSA kit); format: cell-based, human; conditions: 1 nM Mib, five days, normalized to MTS; FIG. 2A
Protocol: as §1, §2

C[C@@H]1CC2=CC(=O)CC[C@@H]2[C@H]2CC[C@@]3(C)[C@@H](CC[C@]3(C)O)[C@@H]21 [Mib, mibolerone]
LNCaP cell proliferation ([1]; presence of Mib (1 nM), FIG. 1): significantly increased

C=C(C)[C@@H]1CC=C(CO)CC1 [POH, Perillyl alcohol]
ARE-regulated luciferase activity [2]: inhibited
accumulation of hK2 protein in LNCaP cells stimulated by androgens [3]: inhibited
androgenic inducibility of the PSA promoter (luciferase reporter) [4]: significantly reduced
proliferation of LNCaP cells ([1]; POH in the presence of 1 nM Mib, p<0.05, FIG. 1): significantly inhibited
level of c-jun [5]: up to 3.5 times the control levels
androgen receptor promoter activity ([6]; POH at 1 μM): drastically reduced
androgen receptor promoter activity ([6]; POH below 1 μM): not affected
androgen-enhanced androgen receptor protein levels [7]: not affected
accumulation of PSA protein in LNCaP cells stimulated by androgens [8]: inhibited
